Series [1] concerns the target T1, full-length recombinant rat vitamin D receptor (Rattus norvegicus, UniProt P13053).
T1 construct: the full-length recombinant rat vitamin D receptor
T1 sequence (P13053 1-423): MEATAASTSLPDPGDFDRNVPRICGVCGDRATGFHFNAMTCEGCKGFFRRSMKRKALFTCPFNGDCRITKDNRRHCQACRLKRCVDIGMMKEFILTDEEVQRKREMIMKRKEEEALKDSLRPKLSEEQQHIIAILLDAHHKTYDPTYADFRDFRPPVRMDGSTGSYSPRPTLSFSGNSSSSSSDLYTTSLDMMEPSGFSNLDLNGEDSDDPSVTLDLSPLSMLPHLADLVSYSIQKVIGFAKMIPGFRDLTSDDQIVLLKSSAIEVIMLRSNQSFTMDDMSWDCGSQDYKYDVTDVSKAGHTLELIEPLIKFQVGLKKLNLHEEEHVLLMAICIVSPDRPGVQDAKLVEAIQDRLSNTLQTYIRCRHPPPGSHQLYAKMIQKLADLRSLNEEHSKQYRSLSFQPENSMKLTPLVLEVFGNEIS
Kind of series: competition with [3H]-1,25(OH)2D3 for binding to vitamin D receptor. The settings on record: full-length recombinant rat vitamin D receptor (FIG. 2).

In the next series the test system is HL-60 cells. Kind of series: HL-60 cell differentiation into monocytes. It is filed as cell-based. The settings on record: for EC50: HL60 cells (FIG. 3). Here is the method: The differentiation of HL-60 promyelocytic into monocytes was determined as described by Ostrem et al (J. Biol. Chem. 262, 14164-14171, 1987).
VDR binding and HL60 cell differentiation.

Series [2] concerns calcium mobilization from bone. Kind of series: bone calcium mobilization in vitamin D-deficient rats on low calcium diet. The following applies: for bone calcium mobilization activity: in words, no dose named. It is filed as in vivo, rat. Here is the method:
Calcium mobilization from bone and intestinal calcium absorption in vitamin D-deficient animals. Using vitamin D-deficient rats on a low calcium diet (0.02%), the activities of these compounds in intestine and bone were tested.

Series [3] relates to intestinal calcium transport. Kind of series: intestinal calcium transport, everted gut sac method, vitamin D-deficient rats. It is filed as in vivo, rat. The settings on record: for intestinal calcium transport activity: vitamin D-deficient rats, in words, no dose named. Here is the method: Intestinal calcium transport was evaluated in the same groups of animals using the everted gut sac method (FIG. 5).

Series [4] is described as follows: serum calcium response in vitamin D-sufficient normal female rats on normal calcium diet. It counts as in vivo, rat. The settings on record: for serum calcium (hypercalcemia): 5000 pmol/day for 7 days, oral or intraperitoneal, normal female rats, 4 hours after last dose. As for the experimental part:
Serum calcium response in vitamin D-sufficient animals on a normal calcium diet. […] The doses were administered to two separate groups of animals by either the oral or intraperitoneal route, and serum calcium levels were assessed 4 hours after the last dose.

Series [5] deals with porcine intestinal vitamin D receptor. Kind of series: binding to porcine intestinal vitamin D receptor. The settings on record: compared to standard 1,25-(OH)2D3 (FIG. 2). An excerpt:
The battery of in vitro and in vivo assays described in […] et al (J. Med.

The structures appear in SMILES notation. Entries after “also recorded” stand apart in the source; their conditions may differ.

The Ki is a dissociation constant, usually derived from enzyme kinetics or from competition with a known ligand. The EC50 is the concentration giving half of the maximal effect. Higher therefore signals a need for much substance. As for `C[C@H](CCCC(C)(C)O)[C@H]1CC[C@H]2/C(=C/C=C3C[C@@H](O)C[C@H](O)C3)CCC[C@]12C` [1,25(OH)2 19-nor-D3, 1α,25-dihydroxy-19-nor-vitamin D3, reference compound], the Ki in series [1] came out at 0.2 nM. For the same compound, the EC50 in the series with HL-60 cells was 4 nM. Further, the “mobilization of bone calcium” value in series [2] (260 pmol/day for 7 days) is “did not result in mobilization of bone calcium”. Also, in series [3], the “intestinal calcium transport activity” value was “devoid of intestinal calcium transport activity”. In addition, in series [4], the “serum calcium (hypercalcemia)” value is recorded as “produced frank hypercalcemia”.
Take `C=C1/C(=C\C=C2/CCC[C@]3(C)[C@@H]([C@H](C)CCCC(C)(C)O)CC[C@@H]23)C[C@@H](O)C[C@@H]1O` [1,25(OH)2D3, 1α,25-dihydroxyvitamin D3, reference compound]: in the series with HL-60 cells, the EC50 was 5 nM. Further, the “serum calcium levels (bone calcium mobilization)” value in series [2] (low calcium diet (0.02%), all dosages) is reported as “increased serum calcium levels at all dosages”. For the same compound, the intestinal calcium transport result in series [3] (260 pmol/day) is listed as “promotes a significant increase”.
For the compound `C=C1C(O)CC(=CC=C2CCCC3(C)C2CCC3C(C)C)CC1O` (stereo not drawn) [2-MP, 1α-hydroxy-2-methylene-19-nor-homopregnacalciferol], the Ki in series [1] came out at 0.3 nM. Also, a half-maximal response in the series with HL-60 cells (EC50) required 6 nM. Also, the “mobilization of bone calcium” value is recorded as “did not result in mobilization of bone calcium” in series [2] (260 pmol/day for 7 days) and “without effect” in series [2] (1300 pmol/day (5-fold)). Moreover, the “bone calcium mobilization activity” value in series [2] (low calcium diet (0.02%)) is on record as “little, if any, activity”. The intestinal calcium transport result in series [3] (260 pmol/day) is “calcium transport activity equivalent to 1,25(OH)2D3”; in series [3] (1300 pmol/day (5-fold higher)), “calcium transport activity equivalent to 1,25(OH)2D3”; in series [3] (doses higher than 1300 pmol/day), “decreased this activity”.
Regarding `C=C1[C@H](O)CC(=C/C=C2\CCC[C@]3(C)[C@@H]([C@@H](C)CC)CC[C@@H]23)C[C@H]1O` [2-MbisP, (20S)-1α-hydroxy-2-methylene-19-nor-bishomopregnacalciferol], in series [1], the Ki was 0.6 nM. For the same compound, the response in the series with HL-60 cells was half-maximal at 7 nM (EC50). Besides, the “mobilization of bone calcium” value in series [2] (260 pmol/day for 7 days) was “did not result in mobilization of bone calcium”; in series [2] (1300 pmol/day (5-fold)), “without effect”. Moreover, the “bone calcium mobilization activity” value in series [2] (low calcium diet (0.02%)) was “little, if any, activity”. For the same compound, the intestinal calcium transport result in series [3] (260 pmol/day) and in series [3] (1300 pmol/day (5-fold higher)) was “do not promote intestinal calcium transport” throughout.
For `C=C1[C@H](O)CC(=C/C=C2\CCC[C@]3(C)C(CC)CCC23)C[C@H]1O` (stereo partly drawn) [2-Mpregna, 1α-hydroxy-2-methylene-19-nor-pregnacalciferol], the Ki in series [1] was 0.3 nM. For the same compound, in series [5], the “binding to the porcine receptor as compared to 1,25-(OH)2D3” value was “bound equally well”. Moreover, in the series with HL-60 cells (Homo sapiens, HL-60), the EC50 was determined as 17 nM. For the same compound, the “potency on HL-60 differentiation compared to 1,25(OH)2D3” value with HL-60 cells (in words, FIG. 3) is “almost as potent as 1,25(OH)2D3”. Also, the results for the “mobilization of bone calcium” value in series [2] (260 pmol/day for 7 days) and in series [2] (1300 pmol/day (5-fold)) were “did not result in mobilization of bone calcium” and “without effect”, respectively. In series [2] (low calcium diet (0.02%)), the “bone calcium mobilization activity” value is listed as “very little bone calcium mobilization activity; also recorded: little, if any, activity”. Also, the intestinal calcium transport entry in series [3] (260 pmol/day) and in series [3] (1300 pmol/day (5-fold higher)) was “do not promote intestinal calcium transport” in each case. Moreover, in series [3], the “intestinal calcium transport activity” value is “very little activity”. Also, the “serum calcium (hypercalcemia)” value in series [4] is recorded as “no increase in serum calcium”. The “calcemic activity from serum calcium after chronic doses” value in series [4] (rats, chronic doses (FIG. 6), in words) is on record as “very little calcemic activity”.

These data come from patent publication US6566352B1, “1 α-hydroxy-2-methylene-19-nor-pregnacalciferol and its uses” (Wisconsin Alumni Research Foudation, priority 2002, dated 2003).
